Test results: patent publication US11453667B2, “Pyridone-pyrimidine derivative acting as KRASG12C mutein inhibitor” (MEDSHINE DISCOVERY INC., priority 2018, dated 2022)

Columns and labels:
[1] = tested on: wild-type A375 human malignant melanoma cells; test: Cell experiment: anti-proliferative activity, CellTiter-Glo, A375; format: cell-based; conditions: 5 days culture
Protocol: (§1) This experiment is intended to verify that the compounds of the present invention have an inhibitory effect on the proliferation of NCI-H358 human non-small cell lung cancer cells with KRAS G12C mutation, MIA PaCa2 human pancreatic cancer cells with KRAS G12C mutation and wild-type A375 human malignant melanoma cells.
(§2) 40 μl of phosphate buffer was added to the peripheral wells of three 384-well microplates respectively, and 40 μl of cell suspension to be tested was added to the other wells of each plate respectively (plate 1: NCI-H358 cell suspension containing 500 NCI-H358 cells; plate 2: MIAPaCa2 cell suspension containing 300 MIAPaCa2 cells; plate 3: A375 cell suspension containing 300 A375 cells). The three cell plates were then placed in a carbon dioxide incubator and incubated overnight. Echo was used to perform a 3-fold gradient dilution of the compounds to be tested, and each compound was diluted with 10 concentration gradients (diluted from 50 μM to 0.003 μM), 100 nl of which was respectively added to the corresponding wells of the cell plates; after dosing, 40 μL of phosphate buffer was added to each well of rows A and P and columns 1 and 24, and then the cell plates were put back to the carbon dioxide incubator for culturing for 5 days. 20 μl of Promega CellTiter-Glo reagent per well was added to the cell plates, which was shaken at room temperature for 10 minutes in the dark to stabilize the luminescence signal. A PerkinElmer Envision multi-label analyzer was used for reading.
(§3) Data analysis: IC50 results were analyzed by GraphPad Prism 5.0 software […].

[2] = tested on: NCI-H358 human non-small cell lung cancer cells with KRAS G12C mutation; test: Cell experiment: anti-proliferative activity, CellTiter-Glo, NCI-H358; format: cell-based; conditions: 5 days culture
Protocol: as §1, §2, §3

[3] = tested on: MIA PaCa2 human pancreatic cancer cells with KRAS G12C mutation; test: Cell experiment: anti-proliferative activity, CellTiter-Glo, MIA PaCa2; format: cell-based; conditions: 5 days culture
Protocol: as §1, §2, §3

[4] = Liver microsome stability test, rat; format: in vitro ADME; conditions: rat liver microsomes, 0.5 mg protein/mL; read-out: rat T1/2
Protocol: (§4) To test the metabolic stability of the test article in mice, rats and human liver microsomes.
(§5) 1. 10 μL of the test or control article working solution was added to all plates (T0, T5, T10, T20, T30, T60, NCF60).
(§6) 2. Liver microsome solution was dispensed into a 96-well plate at 680 μL/well, and addition was performed on each plate at 80 μL/well, and the above-mentioned incubation plate was placed at 37° C. for pre-incubation for about 10 minutes.
(§7) 4. After the pre-incubation, the NADPH regeneration system working solution was dispensed into the 96-well plate at 90 μL/well, and addition was performed on each plate at 10 μL/well to start the reaction.
(§8) 5. Incubation was performed for an appropriate time (e.g., 5, 10, 20, 30 and 60 minutes).
(§9) 6. 300 μL of the stopping solution (refrigerated at 4° C., containing 100 ng/mL of tolbutamide and 100 ng/mL of labetalol) was respectively added to each sample well.
(§10) T1/2 and Clint(mic) were calculated by the following formula.
(§11) Ct is the concentration at time t, with t being the incubation time; C0 is the concentration at 0; Ke is the elimination rate constant; Clint(mic) is the intrinsic clearance rate of liver microsomes; and Clint(liver) is the hepatic intrinsic clearance rate. CLint(mic)=0.693/half-life/mg microsomal protein per mL (microsome concentration during incubation) CLint(liver)=CLint(mic)×mg microsomal protein/g liver weight×ratio of liver weight to body weight

[5] = Liver microsome stability test, mouse; format: in vitro ADME; conditions: mouse liver microsomes, 0.5 mg protein/mL; read-out: mouse T1/2
Protocol: as §4, §5, §6, §7, §8, §9, §10, §11

[6] = Liver microsome stability test, human; format: in vitro ADME; conditions: human liver microsomes, 0.5 mg protein/mL; read-out: Human T1/2
Protocol: as §4, §5, §6, §7, §8, §9, §10, §11

[7] = tested on: human non-small cell lung cancer NCI-H358; test: In vivo drug efficacy test (2): subcutaneous xenograft tumor model; design: species or system BALB/c nude mice; conditions: 100 mg/kg (0-6 days) + 50 mg/kg (7-20 days)
Protocol: To evaluate the in vivo efficacy of the test compounds in a subcutaneous xenograft tumor model of human non-small cell lung cancer NCI-H358.
BALB/c nude mice, female, 6-8 weeks old, weighing 18-21 grams. A total of 100 were required. They were provided by Shanghai Lingchang Experimental Animal Co., Ltd ( ? ? ). NCI-H358 tumor cells were resuspended in PBS to prepare 0.1 mL (5×10^6) of cell suspension, which was inoculated subcutaneously on the right back of each mouse (5×10^6/mouse) to wait for tumor growth. When the average tumor volume reached about 150-200 mm^3, randomized grouping and administration were performed, and the administration dose was shown in Table 6. The diameter of the tumor was measured with vernier calipers twice a week. The formula for calculating the tumor volume is: V=0.5a×b^2, wherein a and b represent the long and short diameters of the tumor, respectively. The tumor suppressive effect of the compounds was evaluated by TGI (%). TGI (%) reflects the tumor growth inhibition rate. Calculation of TGI (%): TGI (%)=[(1−(average tumor volume at the end of administration in a treatment group−average tumor volume at the beginning of administration in the treatment group))/(average tumor volume at the end of treatment in the solvent control group−average tumor volume at the beginning of treatment in the solvent control group)]×100%.

[8] = Homo sapiens, MIA PaCa-2, 120 h

Structure (SMILES) | IC50 ([1]; Homo sapiens, A-375, 120 h) [µM] | IC50 ([2]; Homo sapiens, NCI-H358, 120 h) [µM] | IC50 [3, 8] [µM] | further results
C=CC(=O)N1CCN(c2ncnc3c(=O)n(-c4c(F)ccc(Cl)c4N)c(C(F)(F)F)cc23)CC1 [Example 47] | 27.9 | 1 | 0.82 | –
C=CC(=O)N1CCN(c2nc(N3CC(N(CC)CC)C3)nc3c(=O)n(-c4c(O)c(Cl)cc(Cl)c4F)c(C(F)(F)F)cc23)CC1 [Example 46] | > 50 | 1.95 | 1.79 | –
C=CC(=O)N1CCN(c2nc(N3CC(N(CC)CC)C3)nc3c(=O)n(-c4c(O)cccc4F)c(C(F)(F)F)cc23)CC1 [Example 9] | – | – | – | half-life [4]: 0.772 h; half-life [5]: > 2.42 h; half-life [6]: > 2.42 h
C=CC(=O)N1CCN(c2ncnc3c(=O)n(-c4c(F)cccc4OC(=O)N(C)C)c(C(F)(F)F)cc23)CC1 [Example 22] | 24.4 | – | – | IC50 ([2]; Homo sapiens, 120 h): 5.12 µM
C=CC(=O)N1CCN(c2ncnc3c(=O)n(-c4c(N)cccc4F)c(C(F)(F)F)cc23)CC1 [Example 31] | 33.3 | 1.64 | 1.25 | –
C=CC(=O)N1CCN(c2nc(N3CC(N(CC)CC)C3)nc3c(=O)n(-c4c(C)ccc5[nH]ncc45)c(C(F)(F)F)cc23)CC1 [Example 37] | 19.7 | 1.05 | 1.44 | –
C=CC(=O)N1CCN(c2nc(N3CC(N(CC)CC)C3)nc3c(=O)n(-c4c(N)c(Cl)cc(Cl)c4F)c(C(F)(F)F)cc23)CC1 (atropisomer, axis not shown) [Example 45] | – | – | – | IC50 [1]: 6.24 µM; IC50 [2]: 0.01 µM; IC50 [3]: 0.01 µM
C=CC(=O)N1CCN(c2ncnc3c(=O)n(-c4c(C)ccc5[nH]ncc45)c(C(F)(F)F)cc23)CC1 [Example 28] | 36.2 | 9.93 | – | –
C=CC(=O)N1CCN(c2ncnc3c(=O)n(-c4c(O)ccc5ccccc45)c(C(F)(F)F)cc23)CC1 [Trifluoroacetate of example 55] | ≥ 50 | 4.26 | – | –
C=CC(=O)N1CCN(c2ncnc3c(=O)n(-c4c(N)c(Cl)cc(Cl)c4F)c(C(F)(F)F)cc23)[C@H](C)C1 [Example 52] | – | – | – | IC50 [1]: 7.39 µM; IC50 [2]: 0.06 µM
C=CC(=O)N1CCN(c2ncnc3c(=O)n(-c4c(N)c(Cl)cc(Cl)c4F)c(C(F)(F)F)cc23)[C@H](C)C1 (atropisomer, axis not shown) [Example 51] | 8.82 | – | – | IC50 [2]: 2.04 µM
C=CC(=O)N1CCN(c2ncnc3c(=O)n(-c4c(F)cccc4OC)c(C(F)(F)F)cc23)CC1 [Example 1] | 17.8 | 5.3 | – | –
C=CC(=O)N1CCN(c2nc(OC)nc3c(=O)n(-c4c(O)cccc4F)c(C(F)(F)F)cc23)CC1 [Example 11] | 42.2 | 24 | – | –
C=CC(=O)N1CCN(c2nc(N3CCOCC3)nc3c(=O)n(-c4c(O)cccc4F)c(C(F)(F)F)cc23)CC1 [Example 6] | 39.9 | 14.6 | 12.7 | –
C=CC(=O)N1CC2CN(c3ncnc4c(=O)n(-c5c(O)cccc5F)c(C(F)(F)F)cc34)CC21 (centres unmarked) [Example 18] | 2.86 | 7.18 | – | –
C=CC(=O)N1CCN(c2nc(Oc3cnn(C)c3)nc3c(=O)n(-c4c(O)cccc4F)c(C(F)(F)F)cc23)CC1 [Example 15] | > 50 | 13.9 | – | –

Structure (SMILES) | IC50 ([1]; Homo sapiens, A-375, 120 h) [µM] | IC50 ([2]; Homo sapiens, NCI-H358, 120 h) [µM] | IC50 [3, 8] [µM] | further results
C=CC(=O)N1CCN(c2ncnc3c(=O)n(-c4c(N)ccc(Cl)c4F)c(C(F)(F)F)cc23)CC1 [Example 48] | 20.8 | 0.18 | 0.13 | –
C=CC(=O)N1CCN(c2nc(N3CC(N(CC)CC)C3)nc3c(=O)n(-c4c(N)cccc4F)c(C(F)(F)F)cc23)CC1 [Example 33] | 39.6 | 15.8 | – | –
C=CC(=O)N1CCN(c2nc(N3CC(N(CC)CC)C3)nc3c(=O)n(-c4c(N)cccc4F)c(C(F)(F)F)cc23)CC1 (single isomer, unassigned) [Example 32] | 29.3 | 0.45 | 0.37 | half-life [4]: > 2.42 h; half-life [5]: > 2.42 h; half-life [6]: > 2.42 h
C=CC(=O)N1CCN(c2ncnc3c(=O)n(-c4c(C)ccc(N)c4C)c(C(F)(F)F)cc23)CC1 [Example 26] | 32.6 | 13.3 | – | –
C=CC(=O)N1CCN(c2nc(OC3CCN(C)CC3)nc3c(=O)n(-c4c(O)cccc4F)c(C(F)(F)F)cc23)CC1 [Example 12] | 9.89 | 14.2 | – | –
C=CC(=O)N1CCN(c2ncnc3c(=O)n(-c4c(C)cccc4O)c(C(F)(F)F)cc23)CC1 [Example 25] | – | – | 15.3 | –
C=CC(=O)N1CCN(c2ncnc3c(=O)n(-c4c(N)c(Cl)cc(Cl)c4F)c(C(F)(F)F)cc23)[C@@H](C)C1 (atropisomer, axis not shown) [Example 53] | 8.91 | – | – | IC50 [2]: 2.27 µM
C=CC(=O)N1CCN(c2nc(N3CC(N(CC)CC)C3)nc3c(=O)n(-c4c(C)ccc(N)c4C)c(C(F)(F)F)cc23)CC1 [Example 35] | – | – | – | IC50 [3]: 12 µM
C=CC(=O)N1CCN(c2nc(N3CC(N(CC)CC)C3)nc3c(=O)n(-c4c(C)ccc(N)c4C)c(C(F)(F)F)cc23)CC1 [Example 36] | – | – | – | half-life [4]: > 2.42 h; half-life [5]: > 2.42 h; half-life [6]: > 2.42 h; IC50 [3]: 1.11 µM
C=CC(=O)N1CCN(c2nc(N3CC(N(CC)CC)C3)nc3c(=O)n(-c4c(N)c(Cl)cc(Cl)c4F)c(C(F)(F)F)cc23)CC1 (atropisomer, axis not shown) [Example 44] | 9.02 | – | – | IC50 [2]: 3.67 µM; IC50 [3]: 2.97 µM
C=CC(=O)N1CCN(c2nc(N3CC(N(CC)CC)C3)nc3c(=O)n(-c4c(N)ccc(Cl)c4F)c(C(F)(F)F)cc23)CC1 [Example 42] | 4.57 | 0.01 | 0.02 | Tumor volume (day 20) [7]: 191 mm^3; TGI ([7]; day 20): 95.51%
C=CC(=O)N1CCN(c2nc(N3CC(N(CC)CC)C3)nc3c(=O)n(-c4c(F)ccc(Cl)c4N)c(C(F)(F)F)cc23)CC1 [Example 41] | 12.2 | 0.15 | 0.16 | –
C=CC(=O)N1CCN(c2nc(N3CC(N(CC)CC)C3)nc3c(=O)n(-c4c(O)cccc4F)c(C(F)(F)F)cc23)CC1 [Formate of example 8] | 39.1 | 1.41 | 2.31 | –
C=CC(=O)N1CCN(c2ncnc3c(=O)n(-c4c(C)ccc5c4cnn5C(C)=O)c(C(F)(F)F)cc23)CC1 [Example 27] | ≥ 50 | 20.8 | – | –
C=CC(=O)N1CCN(c2ncnc3c(=O)n(-c4c(N)c(Cl)cc(Cl)c4F)c(C(F)(F)F)cc23)[C@@H](C)C1 [Example 54] | – | – | – | IC50 [1]: 6.66 µM; IC50 [2]: 0.29 µM
C=CC(=O)N1CCN(c2ncnc3c(=O)n(-c4c(O)c(Cl)cc(Cl)c4F)c(C(F)(F)F)cc23)CC1 [Example 50] | > 50 | 5.49 | 3.9 | –
